The text below walks through data of patent US20260053731A1, “MICRONEEDLE PARTICLES FOR ENHANCED TOPICAL TRANSDERMAL DRUG DELIVERY” (BONSENS AB, priority 2023, published 2026).

A short description of this data set: Adverse effects of daily treatment in tumor-bearing mice (weight, skin histology). Type of data set: in vivo, hairless NMRI Nude mice.

Protocol: For hematoxylin/eosin staining (H&E), skin was isolated, immediately fixed in PFA (4% paraformaldehyde in PBS) overnight at room temperature, and then transferred to 70% ethanol prior to paraffin embedding and sectioning. Then, skin sections (8 μm) were stained with hematoxylin for 3 min after rehydration, rinsed for 10 min in running tap water and then stained for 1 min in eosin solution before being mounted on Fluoromount (DAKO). Whole slide pictures were taken by Olympus Slide View VS200 at Histological Core facility—HistoCore, Karolinska Institutet, Sweden, processed, and analyzed by OlyVIA software.
The mice were monitored for signs of discomfort (hunched posture, immobility, >10% weight loss) throughout the duration of the experiment as per ethics application.
In vivo experimentation was performed by inducing subcutaneous GTML2 tumors in mice through injecting a Tet-Off transgenic doxycycline-dependent murine cell line 40 into the flanks. […] Mice were monitored daily and were visualized with IVIS under tumor suspicion. […] Tumors were monitored and measured by IVIS imaging and by vernier calliper every week until the end of the experimentation. When measuring using a Vernier calliper, tumor volumes were calculated from the ellipsoid formula: V=4/3 πWLD. […]

In the case of `C[C@H]1c2cccc(O)c2C(=O)C2=C(O)[C@]3(O)C(=O)C(C(N)=O)=C(O)[C@@H](N(C)C)[C@@H]3[C@@H](O)[C@@H]21` [Doxycycline, doxycycline], the weight of mice result reads like this: (long term oral doxycycline in drinking water, compared to plain water control group) “slower increase in their weight”; (topical skin treatment, 11 weeks) “did not alter the weight of the mice”.
